Measurements published in US9724331B2, “Use of maleimide derivatives for preventing and treating leukemia” (CENTOGENE AG, priority 2012, dated 2017).
“Also recorded” adds a separate entry of the source.

Tests used:
[1] = tested on: Molt-4 cells; assay: Proliferation, cell counts by trypan blue staining; format: cell-based, human
Method: (§1) The human B-ALL cell lines SEM, RS4;11 and the human T-ALL cell lines Jurkat and Molt-4 were purchased from DSMZ (Germany) and cultured according to manufacturer's protocol. The corresponding medium was supplemented with 10% heat-inactivated fetal bovine serum (PAA, Pasching, Austria) and 1% penicillin and streptomycin (Biochrom AG, Berlin, Germany). The Molt-4 cells were cultured with medium supplemented with 20% heat-inactivated fetal bovine serum. All cells were maintained at 37° C. in 5% CO2. Cells (5×10^5/well) were seeded in 24 well plates (Nunc, Langenselbold, Germany) and incubated for up to 72 h with PDA-66. Treated cells were harvested after 4, 24, 48 and 72 h and used for further analyses.
(§2) Cell counts were determined using the trypan blue staining. Metabolic activity was analyzed by using tetrazolium compound WST-1 (Roche, Mannheim, Germany). In brief, triplicates of cells (5×10^4/well) were seeded in 96 well plates, treated with PDA-66 and incubated with 15 μl WST-1 for up to 4 h. The mitochondrial dehydrogenases reduce WST-1 to soluble formazan and cause a change of color, which correlates with the amount of metabolically active cells. Absorbance at 450 nm and a reference wavelength at 620 nm were determined by an ELISA Reader (Anthos, Krefeld, Germany). The absorbance of culture medium with supplemented WST-1 in the absence of cells was used as background control.
(§3) The influence of PDA-66 on proliferation in ALL cell lines SEM, RS4;11, Jurkat and Molt-4 was analyzed by incubation with different concentrations of the drug (0.001 μM to 10 μM). Metabolic activity was determined using WST-1 assay. […] Results are summarized in FIG. 2, whereby the individual nine bars for each set of experiments represent, from left to right, DMSO, 0.001 μM, 0.01 μM, 0.1 μM, 0.25 μM, 0.5 μM, 1.0 μM, 5 μM and 10 μM. After 48 h of incubation an inhibition of proliferation could be observed, but was more distinct after 72 h.

[2] = tested on: SEM cells; assay: Proliferation, cell counts by trypan blue staining; format: cell-based, human
Method: as §1, §2, §3

[3] = tested on: Jurkat cells; assay: Proliferation, cell counts by trypan blue staining; format: cell-based, human
Method: as §1, §2, §3

[4] = tested on: RS4;11 cells; assay: Proliferation, cell counts by trypan blue staining; format: cell-based, human
Method: as §1, §2, §3

[5] = tested on: Molt-4 cells; assay: Metabolic activity, WST-1 assay; format: cell-based, human; conditions: 0.5 μM PDA-66, 72 h, mean±SD
Method: as §1, §2, §3

[6] = target: T1, recombinant human GSK3β (Homo sapiens, UniProt P49841); assay: GSK3β kinase activity assay (Kinase-Glo luminescence); format: biochemical
T1 construct: purchased Biomol, Hamburg, Germany
T1 sequence (P49841 whole entry): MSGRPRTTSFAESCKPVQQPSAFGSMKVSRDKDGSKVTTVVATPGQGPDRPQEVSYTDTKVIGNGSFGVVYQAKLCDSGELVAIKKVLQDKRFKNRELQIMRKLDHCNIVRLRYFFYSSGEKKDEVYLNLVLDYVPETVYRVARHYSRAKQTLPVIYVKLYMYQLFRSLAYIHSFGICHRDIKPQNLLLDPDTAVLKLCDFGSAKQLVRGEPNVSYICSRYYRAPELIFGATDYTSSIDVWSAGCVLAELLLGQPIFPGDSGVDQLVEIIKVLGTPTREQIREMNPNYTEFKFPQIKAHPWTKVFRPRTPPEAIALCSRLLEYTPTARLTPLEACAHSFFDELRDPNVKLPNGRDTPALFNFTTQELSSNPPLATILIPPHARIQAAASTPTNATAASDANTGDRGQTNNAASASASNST
Method: The kinase activity assay was performed as previously described by Schmole et. al., 2010 (Schmole et al., 2010, Novel indolylmaleimide acts as GSK-3beta inhibitor in human neural progenitor cells. Bioorganic medicinal chemistry, 18, 6785-95). Briefly, recombinant human GSK3β (Biomol, Hamburg, Germany) was incubated with its substrate phospho glycogen synthase peptide 2 (pGS2) (Millipore, Billerica, USA), ATP (Cell Signaling, Frankfurt am Main, Germany) and different concentrations of PDA-66 for 30 min at 30° C. After addition of Kinase-Glo (Promega, Mannheim, Germany) and 10 min of incubation at room temperature the luminescence signal was measured with a Glomax 96 microplate reader (Promega). More specifically, recombinant human GSK3β was incubated with pGS2, ATP and different concentrations of PDA-66. […] In each experiment the concentrations of PDA-66 and the control were tested with 8 replicates. * Significant treatment effect vs. DMSO control, α=0.05.
The effect of PDA-66 on the enzyme activity of GSK3β was determined by incubation of the enzyme with a specific substrate, PDA-66 and ATP. With growing inhibitory effect there is more ATP present after the incubation. In a second step remaining ATP is converted to a luminescence signal, which is inversely proportional to the enzyme activity.

[7] = tested on: PI3K/Akt and Wnt/β-catenin pathway in Molt-4 cells; assay: Western blot, PI3K/Akt and Wnt/β-catenin pathway; format: cell-based, human; conditions: incubation of 4 and 24 h
Method: (§4) After treatment with PDA-66 and DMSO, respectively, cells were lyzed and protein expression analyzed with Western blot.
(§5) Protein extraction and Western blot was performed as described above. Following polyclonal antibodies were used: rabbit anti-cleaved caspase 3, rabbit anti-caspase 3, rabbit anti-cleaved PARP, rabbit anti-PARP, rabbit anti-cleaved caspase 7, rabbit anti-caspase 7, rabbit anti-pAktThr308, rabbit anti-pAktSer473, rabbit anti-Akt, rabbit anti-β-catenin, rabbit anti-pGSK3βSer9, rabbit anti-GSK3β, rabbit anti-p4EBP-1Ser65 and rabbit anti-4EBP-1 (all Cell Signaling Frankfurt/Main, Germany). Blots were incubated with mouse anti-GAPDH antibody (Invitrogen, Carlsbad, USA) as loading control.

[8] = tested on: PI3K/Akt and Wnt/β-catenin pathway in SEM cells; assay: Western blot, PI3K/Akt and Wnt/β-catenin pathway; format: cell-based, human
Method: as §4, §5

[9] = tested on: PI3K/Akt and Wnt/β-catenin pathway in Jurkat cells; assay: Western blot, PI3K/Akt and Wnt/β-catenin pathway; format: cell-based, human
Method: as §4, §5

[10] = tested on: PI3K/Akt and Wnt/β-catenin pathway in RS4;11 cells; assay: Western blot, PI3K/Akt and Wnt/β-catenin pathway; format: cell-based, human; conditions: incubation of 4 and 24 h
Method: as §4, §5

[11] = tested on: SEM cells; assay: May Grunwald-Giemsa staining, morphology by light microscopy; format: cell-based, human; conditions: 1 μM PDA-66, 48 h, vs. DMSO treated control cells
Method: (§6) Cytospins of SEM and Jurkat cells were stained with May Grunwald-Giemsa Staining after 48 h of incubation with 1 μM PDA-66 and DMSO, respectively
(§7) After treatment with 1 μM PDA-66 3×10^4 cells were brought onto object slides with Cytospin 3 centrifuge (Shandon, Frankfurt/Main, Germany). Subsequently cells were stained using May-Grunwald-Giemsa staining. Briefly, slides were incubated in May-Grunwald solution (Merck, Darmstadt, Germany) for 6 min, then washed with tap water, incubated in Giemsa solution (Merck, Darmstadt, Germany) for 20 min and washed in tap water again. After letting the slides dry the cells were analyzed by Nikon Eclipse E 600 light microscope and pictures were taken with NIS Elements software (Nikon, Düsseldorf, Germany).

[12] = tested on: Jurkat cells; assay: as above; format: cell-based, human; conditions: 1 μM PDA-66, 48 h, vs. DMSO treated control cells
Method: as §6, §7

[13] = 0.5 μM PDA-66, 72 h, vs. DMSO control
[14] = 0.5 μM or more, seeded cells 5×10^5
[15] = SEM cells shown exemplarily (FIG. 6A)
[16] = SEM cells, incubation of 4 and 24 h

With `CC(=O)c1ccc(C2=C(c3c(C)[nH]c4ccccc34)C(=O)N(C)C2=O)cc1` [PDA-66, 3-(4-Acetylphenyl)-1-methyl-4-(2-methyl-1H-indol-3-yl)-1H-pyrrole-2,5-dione] the inhibition of proliferation [1, 13] was “significant inhibition”, the cell numbers [1, 14] was “decrease in cell numbers i.e. below the amount of seeded cells” and the inhibition of proliferation [2, 13] was “significant inhibition”. For the same molecule, the cell numbers [2, 14] was “decrease in cell numbers i.e. below the amount of seeded cells”, the inhibition of proliferation [3, 13] was “significant inhibition” and the cell numbers [3, 14] was “decrease in cell numbers i.e. below the amount of seeded cells”. For the same molecule, the inhibition of proliferation [4, 13] was “significant inhibition”, the cell numbers [4, 14] was “decrease in cell numbers i.e. below the amount of seeded cells” and the “metabolic activity compared to control cells treated with DMSO” value [5] was 35.5±17%. The GSK3β enzyme activity ([6]; 10 μM PDA-66) was “seems to enhance enzyme activity”, the GSK3β kinase activity ([6]; 0.25-1 μM PDA-66, 30 min at 30° C., vs. DMSO control) was “significantly inhibited; also recorded: inhibition of the enzyme” and the “dose response relationship of GSK3β kinase activity” value ([6]; FIG. 1) was “bell shaped dose response relationship”. The “expression of p4EBP-1Ser65” value [7] was “increased expression; also recorded: increase”, the “expression of total Akt” value [8, 15] was “no influence” and the “expression of total GSK3β” value [8, 15] was “no influence”. The “expression of β-catenin” value [8, 15] was “no influence”, the pGSK3βSer9 ([8]; SEM cells, after 4 h) was “small decrease; also recorded: slight decrease” and the “expression of p4EBP-1Ser65” value [8, 16] was “decrease”. The “expression of total 4EBP-1” value [8, 16] was “decrease”, the pAktSer473 ([8]; SEM cells, incubation of 24 h) was “not confirmed by an increase; also recorded: not confirmed by a rise” and the pAktThr308 ([8]; SEM cells, incubation of 24 h) was “slight increase”. The “expression of p4EBP-1Ser65” value ([9]; incubation of 4 and 24 h) was “decrease”, the “expression of total 4EBP-1” value ([9]; incubation of 4 and 24 h) was “decrease” and the pAktSer473 ([9]; incubation of 24 h) was “not confirmed by a rise”. For the same molecule, the pAktThr308 ([9]; incubation of 24 h) was “increase”, the “expression of p4EBP-1Ser65” value [10] was “decrease” and the “expression of total 4EBP-1” value [10] was “decrease”. The morphology [11] was “condensation of chromatin in the nucleus, karyorrhexis and an increasing amount of vacuoles and cell debris” and the morphology [12] was “condensation of chromatin in the nucleus, karyorrhexis and an increasing amount of vacuoles and cell debris”.
